The values below come from US8658129B2, “Agents and methods for the imaging of myelin basic protein” (General Electric Company, priority 2009, dated 2014).

One data set deals with nerve tissue sections. The data set is described as follows: Ex vivo staining of nerve tissue sections by the agents (histochemical assay). The format is binding, rat. Set-up: key to Nerve binding, ex vivo: A+ indicates binding to nerves using the ex vivo histochemical assay. Conditions: for Nerve binding, ex vivo: 10 uM agent, 20 minutes, nerve tissue sections; for staining of the trigeminal nerves: rat trigeminal nerve sections, FIG. 1. The text has this: Various nerves including sciatic, femoral, brachial plexus, trigeminal, optic, and penile were harvested from male Sprague Dawley rats or male CD-1 mice. Tissue was fixed by perfusion and/or post-fixation with formalin. Following post-fixation, tissue was cryoprotected in a 20% sucrose solution made in phosphate buffered saline (PBS). Nerves were then flash-frozen using methanol and dry ice in OCT media. In some cases, PVDF membranes were used to help keep the nerves vertical in the OCT media. Thin sections (5-10 microns) were sliced on a Leica microtome (Leica Microsystems GmbH, Wetzlar Germany) and stored in a −80° C. freezer prior to staining with agents (1)-(5).
The agents were dissolved in DMSO to make a 10 mM stock solution. Slides containing nerve tissue sections were rinsed three times with PBS. The tissue sections were incubated with a solution of 10 uM of each fluorophore diluted in either PBS or a mixture of 99 uL DMSO, 100 uL cremaphor, 600 uL rat serum, and 200 uL PBS for 20 minutes. The slides were then washed with PBS for 5 min three times, cover-slipped with Vectashield and imaged on a Zeiss Axioimager microscope (Carl Zeiss Meditec, Inc., Oberkochen, Germany) at 200× magnification. A custom filter cube (excitation filter: 387 nm with 11 nm bandpass, 409 nm dichroic mirror; emission filter 409 nm long pass) was used to collect images for examination of morphology and for image analysis.
The control slides, containing the nerves with no agent (not shown), was negative under the same imaging conditions.

A short description of data set [1]: Absorbance and fluorescence spectra of the agents. It counts as physicochemical. The conditions noted are these: for Excitation (DMSO): excitation maximum in 100% DMSO; for Excitation(MeOH): excitation maximum in absolute methanol; for ExcitationddH2O: excitation maximum in distilled/deionized water; for Emission(DMSO): fluorescence emission maximum in DMSO; for Emission(MeOH): fluorescence emission maximum in MeOH; for EmissionddH2O: fluorescence emission maximum in ddH2O. The procedure:
Absorbance spectra of the agents were measured using a UV-Vis spectrometer (PerkinElmer Lambda™ 20, PerkinElmer, Inc., Waltham Mass.) in wavelengths ranging from 200-to-800 nm in 100% dimethylsulfoxide (DMSO), absolute methanol (MeOH), and distilled/deionized water (ddH2O). The wavelength corresponding to the maximum absorbance is recorded and used as the excitation wavelength for future fluorescence measurements.
The fluorescence spectra of the agents were collected in DMSO, MeOH, and ddH2O under continuous excitation using a xenon short arc light source (Ushio UXL 75W, Ushio America, Inc., Cyress Calif.) equipped fluorimeter (350-900 nm; PTI Fluorimeter, Photon Technology International Birmingham, N.J.). A+ indicates binding to nerves using the ex vivo histochemical assay.

Data set [2] is described as follows: Dynamic light scattering measurement of aqueous solubility. The format is physicochemical. The conditions noted are these: 25° C., angle of 173°, in nm (unit assumed). The protocol: Dynamic light scattering spectroscopy was used to measure aqueous solubility. Measurements were collected on a Malvern HPPS500 spectrometer (Malvern Instruments Inc., Southborough, Mass.). Samples were measured in a low volume disposable cuvette at 25° C., at an angle of 173°. Each sample was analyzed in duplicate. Z average measurements were taken to determine the relative molecular “size” of the formulation in terms of the hydrodynamic diameter (DH) radius in solution. DH is inversely related the z-average translational diffusion coefficient (D) in the solution.

For another data set, the system named is nerves. Description: In vivo fluorescence imaging of nerves. Set-up: species or system mice. The conditions noted are these: for nerve-to-adipose tissue ratio: fluorescence emission of 600 nm, compared to agents (4) and (5), FIG. 2. The procedure:
To assess the efficacy of the sulfonamide agents in-vivo the agents were formulated using the following excipients: 5-20% propylene glycol (v/v; JT Baker 9402-01), 5-30% 2-Hydroxylpropyl-β-Cyclodextrin (w/v; Sigma H5784) and 70-90% distilled/deionized water (v/v).
To prepare the pharmaceutical carrier, each excipient is added individually beginning with propylene glycol. Propylene glycol is added directly to the agent and vortexed for approximately 1 minute to guarantee maximal dispersal of the agent in the excipient. The next excipient to be added to the solution is 2-Hydroxylpropyl-β-Cyclodextrin. Cyclodextrin's are cyclic (R-1,4) linked oligosaccharides containing a relatively hydrophobic central cavity and hydrophilic outer surface. The application of cyclodextrin in formulation is to enhance the solubility of a compound in aqueous solutions. In formulation of the sulfonamide analogs a final concentration of 5-15%; 2-Hydroxypropyl β-cyclodextrin (w/v) is added to the solution. The formulation is again vortexed for 1-5 minutes and the pH adjusted to a final range between 4-5. The final step in the formulation is to bring the solution to the volume with distilled/deionized water.
Male CD-1 mice between 25-35 grams were purchased from Charles River Laboratories (Wilmington, Mass.). Prior to administration of the agent, animals were briefly anesthetized using 2% isofluorane. Each agent was then administered in a 15.2 mg/kg dose via tail vein catheterization. Each rodent was allowed to recover from anesthesia prior to returning to the home cage.
Structure (2) and (3) were administered at an average of 15 mg/kg formulated in the pharmaceutical carrier. Formulated agents were administered in mice 4 hours prior to imaging using a Zeiss Lumara microscope (Carl Zeiss Meditec, Inc., Oberkochen, Germany) with an attached CRI Nuance™ camera for multispectral fluorescence imaging (Cambridge Research & Instrumentation, Inc., Woburn, Mass.). The excitation wavelengths used were 406/15 nm or 460/60 nm.
The adjacent muscle tissues had very low background binding. […]

`COc1cc(/C=C/c2ccc(S(=O)(=O)N3CCOCC3)cc2)ccc1/C=C/c1ccc(N)cc1` [(1)]: in the data set with nerve tissue sections, the “Nerve binding, ex vivo” value is “+” and the “staining of the trigeminal nerves” value is recorded as “myelinated donut-shaped structures are visible”. For the same compound, in data set [1], the Excitation (DMSO) was found to be 422 nm, the Excitation(MeOH) was 392 nm, the ExcitationddH2O stood at 380 nm and the Emission(DMSO) stood at 621 nm. In data set [1], this compound yielded an Emission(MeOH) of 604 nm and an EmissionddH2O of 581 nm.

Regarding `COc1cc(/C=C/c2ccc(S(=O)(=O)N(CCO)CCO)cc2)ccc1/C=C/c1ccc(N)cc1` [(2)], in the data set with nerve tissue sections, the “Nerve binding, ex vivo” value is reported as “+” and the “staining of the trigeminal nerves” value is on record as “myelinated donut-shaped structures are visible”. In addition, in data set [1], the Excitation (DMSO) stood at 392 nm, the Excitation(MeOH) stood at 391 nm, the ExcitationddH2O stood at 409 nm and the Emission(DMSO) is 600 nm. Further, in data set [1], the Emission(MeOH) was 680 nm and the EmissionddH2O is 620 nm.

As to `COc1cc(/C=C/c2ccc(S(=O)(=O)N3CCN(CCO)CC3)cc2)ccc1/C=C/c1ccc(N)cc1.Cl` [(3)], in the data set with nerve tissue sections, the “Nerve binding, ex vivo” value is on record as “+” and the “staining of the trigeminal nerves” value is reported as “myelinated donut-shaped structures are visible”. The compound also gave a Z-average in data set [2] of 29.70. Moreover, in data set [1], the Excitation (DMSO) was 388 nm, the Excitation(MeOH) was found to be 380 nm, the ExcitationddH2O is 412 nm and the Emission(DMSO) turned out to be 615 nm. In data set [1], the Emission(MeOH) stood at 488 nm and the EmissionddH2O is 626 nm.

As for `COc1cc(/C=C/c2ccc(S(C)(=O)=O)cc2)ccc1/C=C/c1ccc(N)cc1` [(4)], the Z-average in data set [2] turned out to be 2210.00.

Turning to `COc1cc(/C=C/c2ccc(C#N)cc2)ccc1/C=C/c1ccc(N)cc1` [(5)], in the data set on nerves (mice, FIG. 4), the “time at which nerve-to-muscle ratio is best” value is “four”. For the same compound, the Z-average in data set [2] is on record as 7365.00.

As for `COc1cc(/C=C/c2ccc(S(=O)(=O)N(CCO)CCO)cc2)ccc1/C=C/c1ccc(N)cc1` [Structure 2], the nerve-to-adipose tissue ratio entry in the data set with nerves is listed as “higher”.

For `COc1cc(/C=C/c2ccc(S(=O)(=O)N3CCN(CCO)CC3)cc2)ccc1/C=C/c1ccc(N)cc1.Cl` [Structure 3], the nerve-to-adipose tissue ratio result in the data set on nerves was “higher”.
